What was measured:
[1] = DPPH free radical antioxidant activity test (UV/visible spectrophotometry, 517 nm); assay type: biochemical
Procedure: The antioxidant activity is assessed by measuring the capacity of the compound to react with a free radical (here 2,2-diphenyl-1-picrylhydrazyl also known as DPPH). […] Butylated hydroxytoluene (BHT) and vitamin E were used as […] substances (positive control) and glycerol as negative control (see FIGS. 3 and 4).

[2] = Surface tension by pendant drop method, water/air interface; assay type: physicochemical
Procedure: Surface tension measurements were performed using the pendant drop method by Kruss EasyDrop Standard drop shape analysis system. […]

CCCc1cc(OC)c(O)c(OC)c1 [4-propylsyringol]
inhibition rate ([1]; concentration of 5 μg/mL): 65%
inhibition rate ([1]; concentration of 10 μg/mL): 84%
inhibition rate ([1]; concentration of 50 μg/mL): 85%
Water/air interface (surface tension) ([2]; concentration 0.10 wt %): 48.3 mN/m
Water/air interface (surface tension) ([2]; concentration 0.50 wt %): 34.9 mN/m
Water/air interface (surface tension) ([2]; concentration 1.00 wt %): 32.3 mN/m

Cc1cc(C(C)(C)C)c(O)c(C(C)(C)C)c1 [BHT, Butylated hydroxytoluene]
inhibition rate ([1]; concentration of 5 μg/mL): 32%
inhibition rate ([1]; concentration of 10 μg/mL): 54%
inhibition rate ([1]; concentration of 50 μg/mL): 85%

CCCCC(CC)COC(=O)CC(C(=O)OCC(CC)CCCC)S(=O)(=O)[O-].[Na+] (centres unmarked) [DOSS, Dioctyl Sodium Sulfosuccinate]
Water/air interface (surface tension) ([2]; concentration 0.20 wt %): 51 mN/m

CCCc1cc(OC)c([O-])c(OC)c1.[Na+] [PSNa, 4-propylsyringol sodium salt]
Water/air interface (surface tension) ([2]; concentration 0.10 wt %): 45.1 mN/m
Water/air interface (surface tension) ([2]; concentration 0.50 wt %): 39.8 mN/m
Water/air interface (surface tension) ([2]; concentration 1.00 wt %): 33.8 mN/m

CCCCCCCCCCCCOS(=O)(=O)[O-].[Na+] [SLS, sodium lauryl sulfate]
Water/air interface (surface tension) ([2]; concentration 0.20 wt %): 35.4 mN/m

Sodium linear alkylbenzenesulfonate [NaLAS]
Water/air interface (surface tension) ([2]; concentration 0.10 wt %): 33 mN/m

nonylphenol ethoxylate [NPE]
Water/air interface (surface tension) ([2]; concentration 0.02 wt %): 36 mN/m

sodium lauryl ether sulfate [SLES]
Water/air interface (surface tension) ([2]; concentration 0.02 wt %): 33.8 mN/m

vitamin E
inhibition rate ([1]; concentration of 5 μg/mL): 28%
inhibition rate ([1]; concentration of 10 μg/mL): 61%
inhibition rate ([1]; concentration of 50 μg/mL): 84%
